According to PubChem BioAssay (NCI):
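Assay format: 96-well plates, 48-hour exposure. GI50: concentration for 50% inhibition of growth. TGI: concentration producing complete growth inhibition.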 Where a SMILES comes first, the peptide text is derived from it. The star is where a group is joined. OBn = c1ccc(CO*)cc1

Assays:
Assay in all cases: DTP human tumour cell line panel, 48 h
[1] = tested on: K-562 leukemia
[2] = tested on: OVCAR-4 ovarian
[3] = tested on: 786-0 renal
[4] = tested on: UO-31 renal
[5] = tested on: MOLT-4 leukemia

Row | Structure (SMILES) | TGI [1] [µM] | TGI [2] [µM] | TGI [3] [µM] | TGI [4] [µM] | TGI [5] [µM] | GI50 [1] [µM] | GI50 [2] [µM] | GI50 [4] [µM] | GI50 [5] [µM]
1 | COc1ccc(-n2cnc3c(NC(C)(C)C(=O)O)ncnc32)cc1 | > 100 | > 100 | > 100 | > 100 | > 100 | – | – | – | –
2 | CC(C)(C)C(=O)Nc1cccc(-c2ccc[nH]2)n1 | > 100 | > 100 | > 100 | > 100 | > 100 | – | – | – | –
3 | CCOn1cc(C2=C(c3c[nH]c4ccccc34)C(=O)NC2=O)c2ccccc21 | > 33.1 | > 72.4 | 15.7 | > 47.4 | 10.4 | < 0.0139 | 14.6 | 16.9 | < 0.01
4 | CN1CCC/C1=C1\C(=O)c2cccn2C1=O | > 100 | > 100 | > 100 | > 100 | > 100 | – | – | – | –
5 | CC(C)C(Cl)CC/C(CBr)=C(\Cl)CCl (stereo unspecified) | 3.69 | 7.34 | 5.04 | 30.8 | > 20.3 | – | – | – | –
6 | CC(Oc1ccc(Cl)cc1Cl)C(=O)NN1C(=O)CSC1c1ccc(Cl)cc1 (stereo unspecified) | > 100 | > 100 | > 100 | > 100 | 80.1 | – | – | – | –
7 | NC(CCC(=O)OCc1ccccc1)C(=O)NC(CCC(=O)OCc1ccccc1)C(=O)O (stereo unspecified) (H-Glu(OBn)-Glu(OBn)-OH; configuration not given here) | > 100 | > 100 | > 100 | > 100 | > 100 | – | – | – | –
8 | COC(=O)c1c(C(=O)OC)c(C(c2ccccc2)c2ccccc2)n(-c2ccccc2)c1Cl | > 10 | > 10 | > 10 | > 10 | 8.1 | – | – | – | –
9 | COc1cc(/C=N/NC2=NCCCN2)ccc1O | > 100 | > 100 | > 100 | > 100 | > 100 | – | – | – | –
10 | O=C1CCSc2c(cnc3ccccc23)N1 | > 100 | > 100 | > 100 | > 100 | > 100 | – | – | – | –
11 | COc1ccc(N2C(=O)/C(=C\c3cc(OC)c(OC)c(OC)c3)S(=O)(=O)C2c2ccccc2)cc1 (stereo unspecified) | > 100 | > 100 | > 100 | > 100 | > 100 | – | – | – | –
12 | Cc1ccc(S(=O)(=O)n2cnc(CC(NC(=O)C3CCC(=O)N3C(=O)OCc3ccccc3)C(=O)N3CCCC3C(=O)NN)c2)cc1 (stereo unspecified) | > 100 | – | > 100 | > 100 | > 100 | – | – | – | –
13 | C[C@@H]1OC2(O)[C@@H]3CCCN3C(=O)N(Cc3ccccc3)N2C1=O (stereo partly specified) | – | > 100 | > 100 | – | > 100 | – | – | – | –
14 | COc1ccc(CCN(C)C(=O)CC(C#N)(c2ccccc2)c2ccc(OC)c(OC)c2)cc1OC (stereo unspecified) | > 100 | > 100 | > 100 | > 100 | > 100 | – | – | – | –
15 | C#C[C@]1(O)CC[C@H]2[C@@H]3CCC4=C/C(=N\OCCN5CCCC5)CC[C@]4(C)[C@H]3CC[C@@]21C | > 39.2 | > 62.1 | 24.4 | 32.9 | 17.9 | – | – | – | –
16 | C=C(Cl)C(Br)(CBr)CCC(Br)C(C)(C)Br (stereo unspecified) | > 10 | > 10 | 3.08 | > 10 | > 10 | – | – | – | –
17 | C=CC1(c2ccc(Br)cc2)OCCCO1 | > 100 | > 100 | > 100 | > 100 | > 100 | – | – | – | –
